Measured values as given in ChEMBL document CHEMBL3779887, “Robenidine Analogues as Gram-Positive Antibacterial Agents” (J Med Chem, 2016).
≈ marks a conversion by molar mass, not a printed value. Calls of active or inactive are those of the source. The rule behind the calls is not given here.

Columns and labels:
Staphylococcus aureus [1] = assay: Ratio of MBC for methicillin-sensitive Staphylococcus aureus ATCC 29213 to MIC90 for methicillin-sensitive Staphylococcus aureus ATCC 29213; type: functional
Staphylococcus aureus [2] = assay: Bactericidal activity against Methicillin-sensitive Staphylococcus aureus ATCC 29213 assessed as log reduction in bacterial cell number at 8 times MIC after 24 hrs by time-kill curve analysis; type: functional, organism-based
[3] = Metabolic stability in human liver microsomes assessed as compound loss after 60 mins; type: ADME; settings: read-out: Drug degradation
Staphylococcus aureus [4] = assay: Bactericidal activity against Methicillin-sensitive Staphylococcus aureus ATCC 29213 assessed as log reduction in bacterial cell number at MIC after 8 hrs by time kill curve analysis
Staphylococcus aureus [5] = assay: Antibacterial activity against methicillin-sensitive Staphylococcus aureus ATCC 25923 after 20 to 24 hrs; type: functional
Staphylococcus aureus [6] = assay: Bactericidal activity against […] Staphylococcus aureus clinical isolate USA300 assessed as log reduction in bacterial cell number at 8 times MIC after 8 hrs by time-kill curve analysis; type: functional
Staphylococcus aureus [7] = assay: Bactericidal activity against methicillin-sensitive Staphylococcus aureus ATCC 29213 assessed as log reduction in bacterial cell number at 2 times MIC after 8 hrs by time-kill curve analysis; type: functional
Staphylococcus aureus [8] = assay: Antibacterial activity against methicillin-sensitive Staphylococcus aureus ATCC 49775 after 20 to 24 hrs; type: functional
[9] = Solubility of the compound at pH 2; type: physicochemical; settings: buffer
Staphylococcus aureus [10] = assay: Bactericidal activity against methicillin-resistant Staphylococcus aureus clinical isolate after 24 and 48 hrs; type: functional
Pseudomonas aeruginosa [11] = assay: Antibacterial activity against Pseudomonas aeruginosa ATCC 27853 after 20 to 24 hrs; type: functional
Staphylococcus aureus [12] = assay: Ratio of MBC for methicillin-sensitive Staphylococcus aureus ATCC 25923 to MIC90 for methicillin-sensitive Staphylococcus aureus ATCC 25923; type: functional
Staphylococcus aureus [13] = assay: Bactericidal activity against methicillin-sensitive Staphylococcus aureus ATCC 6538 after 24 and 48 hrs; type: functional
Escherichia coli [14] = assay: Antibacterial activity against Escherichia coli ATCC 25922 after 20 to 24 hrs in presence of polymyxin B nonapeptide; type: functional
Staphylococcus aureus [15] = assay: Antibacterial activity against methicillin-sensitive Staphylococcus aureus ATCC 29213 after 20 to 24 hrs; type: functional
[16] = Toxicity in po dosed female rabbit; type: organism-based, Oryctolagus cuniculus; settings: in vivo
Staphylococcus aureus [17] = assay: Bactericidal activity against […] Staphylococcus aureus clinical isolate USA300 assessed as log reduction in bacterial cell number at 2 times MIC after 24 hrs by time-kill curve analysis; type: functional, organism-based
[18] = Intrinsic clearance in mouse liver microsomes assessed per mg of protein; type: ADME; settings: read-out: CLH
[19] = Cytotoxicity against human HepG2 cells after 24 hrs by WST-1 based colorimetric assay; type: cell-based
Staphylococcus aureus [20] = assay: Bactericidal activity against methicillin-sensitive Staphylococcus aureus ATCC 29213 assessed as log reduction in bacterial cell number at 8 times MIC after 8 hrs by time-kill curve analysis; type: functional
[21] = Lipophilicity, logD of the compound at pH 7.4; type: physicochemical; settings: buffer
Staphylococcus aureus [22] = assay: Antibacterial activity against methicillin-sensitive Staphylococcus aureus ATCC 6538 after 20 to 24 hrs in presence of 50% heat inactivated bovine serum; type: functional
[23] = Solubility of the compound at pH 6.5; type: physicochemical; settings: buffer
Enterococcus = assay: Antibacterial activity against vancomycin-resistant Enterococcus after 20 to 24 hrs; type: functional
[24] = Selectivity index, ratio of GI50 for human HEL299 cells to MIC50 for methicillin-resistant Staphylococcus aureus clinical isolate; type: functional, HEL 299
Staphylococcus aureus [25] = assay: Antibacterial activity against methicillin-sensitive Staphylococcus aureus ATCC 29213 after 20 to 24 hrs in presence of 50% heat inactivated bovine serum
Staphylococcus aureus [26] = assay: Antibacterial activity against methicillin-sensitive Staphylococcus aureus ATCC 49775 after 20 to 24 hrs in presence of 50% heat inactivated bovine serum; type: functional
Staphylococcus aureus [27] = assay: Antibacterial activity against methicillin-sensitive Staphylococcus aureus ATCC 6538 after 20 to 24 hrs; type: functional
[28] = Metabolic stability in mouse liver microsomes assessed as compound loss after 60 mins; type: ADME; settings: read-out: Drug degradation
Staphylococcus aureus [29] = assay: Ratio of MBC for methicillin-sensitive Staphylococcus aureus ATCC 6538 to MIC90 for methicillin-sensitive Staphylococcus aureus ATCC 6538; type: functional
Staphylococcus aureus [30] = assay: Bactericidal activity against methicillin-sensitive Staphylococcus aureus ATCC 29213 assessed as log reduction in bacterial cell number at 4 times MIC after 8 hrs by time-kill curve analysis; type: functional
Pseudomonas aeruginosa [31] = assay: Ratio of MIC90 for Pseudomonas aeruginosa ATCC 27853 to MIC90 for Pseudomonas aeruginosa ATCC 27853 in presence of polymyxin B nonapeptide; type: functional
[32] = Intrinsic clearance in human liver microsomes assessed per mg of protein; type: ADME; settings: read-out: CLH
Staphylococcus aureus [33] = assay: Ratio of MBC for methicillin-sensitive Staphylococcus aureus ATCC 49775 to MIC90 for methicillin-sensitive Staphylococcus aureus ATCC 49775; type: functional
Staphylococcus aureus [34] = assay: Bactericidal activity against methicillin-sensitive Staphylococcus aureus ATCC 29213 assessed as log reduction in bacterial cell number at MIC after 8 hrs by time-kill curve analysis; type: functional
Staphylococcus aureus [35] = assay: Bactericidal activity against […] Staphylococcus aureus clinical isolate USA300 assessed as log reduction in bacterial cell number at 8 times MIC after 24 hrs by time-kill curve analysis; type: functional, organism-based
[36] = Cytotoxicity against human HEL299 cells after 24 hrs by WST-1 based colorimetric assay; type: cell-based, HEL 299
Staphylococcus aureus [37] = assay: Bactericidal activity against methicillin-sensitive Staphylococcus aureus ATCC 25923 after 24 and 48 hrs; type: functional
[38] = Lipophilicity, logD of the compound at pH 3; type: physicochemical; settings: buffer
[39] = Half life of compound in mouse liver microsomes; type: ADME
[40] = Toxicity in po dosed male rabbit; type: organism-based, Oryctolagus cuniculus; settings: in vivo
Staphylococcus aureus [41] = assay: Inhibition of biofilm formation in methicillin-resistant Staphylococcus aureus assessed as log reduction at > 43.2 uM after 24 hrs by MBEC assay relative to control; type: functional
[42] = Half life of compound in human liver microsomes; type: ADME
Staphylococcus aureus [43] = assay: Bactericidal activity against […] Staphylococcus aureus clinical isolate USA300 assessed as log reduction in bacterial cell number at MIC after 24 hrs by time-kill curve analysis; type: functional, organism-based
Escherichia coli [44] = assay: Antibacterial activity against Escherichia coli ATCC 25922 after 20 to 24 hrs; type: functional
Staphylococcus aureus [45] = assay: Inhibition of biofilm formation in methicillin-resistant Staphylococcus aureus after 24 hrs by MBEC assay; type: functional
[46] = Toxicity in sheep erythrocytes assessed as hemolysis after 30 mins; type: cell-based, Ovis aries; settings: erythrocyte, 0.5 h
Staphylococcus aureus [47] = assay: Bactericidal activity against […] Staphylococcus aureus clinical isolate USA300 assessed as log reduction in bacterial cell number at 4 times MIC after 24 hrs by time-kill curve analysis; type: functional, organism-based
Staphylococcus aureus [48] = assay: Bactericidal activity against […] Staphylococcus aureus clinical isolate USA300 assessed as log reduction in bacterial cell number at 4 times MIC after 8 hrs by time-kill curve analysis; type: functional
Staphylococcus aureus [49] = assay: Antibacterial activity against methicillin-resistant Staphylococcus aureus clinical isolate after 20 to 24 hrs; type: functional

SMILES: N=C(N/N=C/c1ccc(Cl)cc1)N/N=C/c1ccc(Cl)cc1 [ROBENIDINE]
- Ratio (Staphylococcus aureus [1]): 1
- Activity (Staphylococcus aureus [2]): inactive
- metabolised at 1 h [3]: < 15%
- Activity (Staphylococcus aureus [4]): inactive
- MIC90 (Staphylococcus aureus [5]): 5.4 µM (≈ 1.8 µg/mL)
- Activity (Staphylococcus aureus [6]): >=4 log10CFU/ml
- Activity (Staphylococcus aureus [7]): >=4 log10CFU/ml
- MIC90 (Staphylococcus aureus [8]): 5.4 µM (≈ 1.8 µg/mL)
- solubility [9]: 6.3 µg/mL (≈ 18.9 µM)
- MBC (Staphylococcus aureus [10]): 5.4 µM (≈ 1.8 µg/mL)
- MIC (Pseudomonas aeruginosa [11]): > 400 µM
- Ratio (Staphylococcus aureus [12]): 1
- MBC (Staphylococcus aureus [13]): 5.4 µM (≈ 1.8 µg/mL)
- MIC90 (Escherichia coli [14]): 21.6 µM
- MIC90 (Staphylococcus aureus [15]): 5.4 µM (≈ 1.8 µg/mL)
- LD50 [16]: 2900 mg/kg
- Activity (Staphylococcus aureus [17]): inactive
- microsomal CLint [18]: < 7 µL/min/mg
- GI50 at 24 h [19]: 25.4 µM
- Activity (Staphylococcus aureus [20]): >=4 log10CFU/ml
- logD [21]: 4.5
- MIC90 (Staphylococcus aureus [22]): > 250 µM
- solubility [23]: < 1.6 µg/mL
- MIC (Enterococcus): 4.7 µM (≈ 1.57 µg/mL)
- Selectivity Index [24]: 2
- MIC90 (Staphylococcus aureus [25]): > 250 µM
- MIC90 (Staphylococcus aureus [26]): > 250 µM
- MIC90 (Staphylococcus aureus [27]): 5.4 µM (≈ 1.8 µg/mL)
- metabolised at 1 h [28]: < 15%
- Ratio (Staphylococcus aureus [29]): 1
- Activity (Staphylococcus aureus [30]): >=4 log10CFU/ml
- Ratio (Pseudomonas aeruginosa [31]): 10
- microsomal CLint [32]: < 7 µL/min/mg
- Ratio (Staphylococcus aureus [33]): 1
- Activity (Staphylococcus aureus [34]): >=4 log10CFU/ml
- Activity (Staphylococcus aureus [35]): inactive
- GI50 at 24 h [36]: 17.7 µM
- MBC (Staphylococcus aureus [37]): 5.4 µM (≈ 1.8 µg/mL)
- logD [38]: 3.7
- half-life [39]: > 247 min
- LD50 [40]: 1500 mg/kg
- FC (Staphylococcus aureus [41]): <=3
- half-life [42]: > 247 min
- Activity (Staphylococcus aureus [43]): inactive
- MIC (Escherichia coli [44]): > 400 µM
- INH (Staphylococcus aureus [45]): >43.2 µM
- Activity [46]: >= 173 uM
- Activity (Staphylococcus aureus [47]): inactive
- Activity (Staphylococcus aureus [48]): >=4 log10CFU/ml
- MIC90 (Staphylococcus aureus [49]): 5.4 µM (≈ 1.8 µg/mL)
